Source: patent US20250120989A1, “BRIDGED TRICYCLIC CARBAMOYLPYRIDONE COMPOUNDS AND USES THEREOF” (priority 2023, published 2025)
Read-outs that look alike come from different tables or passages of the source.

Tests used:
[1] = system: HIV-1 (IIIB); assay: microbe, parasite or virus in culture; format: cell-based; conditions: read-out: MT4 EC50
[2] = in vitro; conditions: human; for CC50 at 5 days: uninfected MT-4 cells
[3] = Human immunodeficiency virus 1, MT4, 120 h, HIV-1 (IIIB) replication in MT-4 cells, 5 days, Cell Titer Glo

Row | Compound | CC50 at 5 days [2] [µM] | also measured
1 | COC1=NO[C@@]2(CC[C@H](C)N3C[C@H]2n2cc(C(=O)NCc4ccc(F)cc4F)c(=O)c(OCOP(=O)(O)O)c2C3=O)C1 [Compound 1, (((3′S,5S,7′R)-10′-((2,4-difluorobenzyl)carbamoyl)-3-methoxy-3′-methyl-1′,11′-dioxo-1′,4′,5′,11′-tetrahydro-3′H,4H,7′H-spiro[isoxazole-5,6′-[2,7]methanopyrido[1,2-a][1,4]diazonin]-12′-yl)oxy)methyl dihydrogen phosphate] | 15.4 | EC50 [1, 3]: 0.00177 µM
2 | CC1=NO[C@@]2(CC[C@H](C)N3C[C@H]2n2cc(C(=O)NCc4ccc(F)cc4F)c(=O)c(OC(=O)C(C)(C)CCN(CC(=O)O)C(=O)OCOP(=O)(O)O)c2C3=O)C1 [Compound 2, N-(4-(((3′S,5S,7′R)-10′-((2,4-difluorobenzyl)carbamoyl)-3,3′-dimethyl-1′,11′-dioxo-1′,4′,5′,11′-tetrahydro-3′H,4H,7′H-spiro[isoxazole-5,6′-[2,7]methanopyrido[1,2-a][1,4]diazonin]-12′-yl)oxy)-3,3-dimethyl-4-oxobutyl)-N-(((phosphonooxy)methoxy)carbonyl)glycine] | 12.3 | EC50 [1, 3]: 0.00137 µM
3 | CC1=NO[C@@]2(CC[C@H](C)N3C[C@H]2n2cc(C(=O)NCc4ccc(F)cc4F)c(=O)c(OC(C)OC(=O)OCCOP(=O)(O)O)c2C3=O)C1 (stereo partly drawn) [Compound 5, 1-(((3′S,5S,7′R)-10′-((2,4-difluorobenzyl)carbamoyl)-3,3′-dimethyl-1′,11′-dioxo-1′,4′,5′,11′-tetrahydro-3′H,4H,7′H-spiro[isoxazole-5,6′-[2,7]methanopyrido[1,2-a][1,4]diazonin]-12′-yl)oxy)ethyl (2-(phosphonooxy)ethyl) carbonate] | 10.6 | EC50 [1, 3]: 0.00196 µM
4 | CC1=NO[C@@]2(CC[C@H](C)N3C[C@H]2n2cc(C(=O)NCc4ccc(F)cc4F)c(=O)c(OC(=O)OCCOP(=O)(O)O)c2C3=O)C1 [Compound 6, (3′S,5S,7′R)-10′-((2,4-difluorobenzyl)carbamoyl)-3,3′-dimethyl-1′,11′-dioxo-1′,4′,5′,11′-tetrahydro-3′H,4H,7′H-spiro[isoxazole-5,6′-[2,7]methanopyrido[1,2-a][1,4]diazonin]-12′-yl (2-(phosphonooxy)ethyl) carbonate] | – | EC50 ([1]; Human immunodeficiency virus 1, IIIB, MT4, 120 h): 0.00209 µM; CC50 [2]: 15.2 µM
5 | CC1=NO[C@@]2(CC[C@H](C)N3C[C@H]2n2cc(C(=O)NCc4ccc(F)cc4F)c(=O)c(OCOC(=O)OCCN(C)C)c2C3=O)C1 [Compound 14, (((3′S,5S,7′R)-10′-((2,4-difluorobenzyl)carbamoyl)-3,3′-dimethyl-1′,11′-dioxo-1′,4′,5′,11′-tetrahydro-3′H,4H,7′H-spiro[isoxazole-5,6′-[2,7]methanopyrido[1,2-a][1,4]diazonin]-12′-yl)oxy)methyl (2-(dimethylamino)ethyl) carbonate] | 17.1 | –
6 | CC1=NO[C@@]2(CC[C@H](C)N3C[C@H]2n2cc(C(=O)NCc4ccc(F)cc4F)c(=O)c(OCOC(=O)N(C)CC(=O)O)c2C3=O)C1 [Compound 45, N-(((((3′S,5S,7′R)-10′-((2,4-difluorobenzyl)carbamoyl)-3,3′-dimethyl-1′,11′-dioxo-1′,4′,5′,11′-tetrahydro-3′H,4H,7′H-spiro[isoxazole-5,6′-[2,7]methanopyrido[1,2-a][1,4]diazonin]-12′-yl)oxy)methoxy)carbonyl)-N-methylglycine] | 50 | –
7 | CC[C@H](OP(=O)(O)O)[C@H](C)OC(=O)OCOc1c2n(cc(C(=O)NCc3ccc(F)cc3F)c1=O)[C@@H]1CN(C2=O)[C@@H](C)CC[C@]12CC(C)=NO2 [Compound 72, (((3′S,5S,7′R)-10′-((2,4-difluorobenzyl)carbamoyl)-3,3′-dimethyl-1′,11′-dioxo-1′,4′,5′,11′-tetrahydro-3′H,4H,7′H-spiro[isoxazole-5,6′-[2,7]methanopyrido[1,2-a][1,4]diazonin]-12′-yl)oxy)methyl ((2S,3S)-3-(phosphonooxy)pentan-2-yl) carbonate] | 27.2 | –
8 | CC[C@@H](OP(=O)(O)O)[C@H](C)OC(=O)OCOc1c2n(cc(C(=O)NCc3ccc(F)cc3F)c1=O)[C@@H]1CN(C2=O)[C@@H](C)CC[C@]12CC(C)=NO2 [Compound 73, (((3′S,5S,7′R)-10′-((2,4-difluorobenzyl)carbamoyl)-3,3′-dimethyl-1′,11′-dioxo-1′,4′,5′,11′-tetrahydro-3′H,4H,7′H-spiro[isoxazole-5,6′-[2,7]methanopyrido[1,2-a][1,4]diazonin]-12′-yl)oxy)methyl ((2S,3R)-3-(phosphonooxy)pentan-2-yl) carbonate] | 30.8 | –
9 | CC[C@H](OP(=O)(O)O)[C@H](C)OC(=O)OCOc1c2n(cc(C(=O)NCc3ccc(F)cc3F)c1=O)[C@@H]1CN(C2=O)[C@@H](C)CC[C@]12CC(OC)=NO2 [Compound 74, (((3′S,5S,7′R)-10′-((2,4-difluorobenzyl)carbamoyl)-3-methoxy-3′-methyl-1′,11′-dioxo-1′,4′,5′,11′-tetrahydro-3′H,4H,7′H-spiro[isoxazole-5,6′-[2,7]methanopyrido[1,2-a][1,4]diazonin]-12′-yl)oxy)methyl ((2S,3S)-3-(phosphonooxy)pentan-2-yl) carbonate] | 26.6 | –
10 | CC[C@@H](OP(=O)(O)O)[C@H](C)OC(=O)OCOc1c2n(cc(C(=O)NCc3ccc(F)cc3F)c1=O)[C@@H]1CN(C2=O)[C@@H](C)CC[C@]12CC(OC)=NO2 [Compound 75, (((3′S,5S,7′R)-10′-((2,4-difluorobenzyl)carbamoyl)-3-methoxy-3′-methyl-1′,11′-dioxo-1′,4′,5′,11′-tetrahydro-3′H,4H,7′H-spiro[isoxazole-5,6′-[2,7]methanopyrido[1,2-a][1,4]diazonin]-12′-yl)oxy)methyl ((2S,3R)-3-(phosphonooxy)pentan-2-yl) carbonate] | 34.3 | –
11 | CC[C@@H](OP(=O)(O)O)[C@@H](C)OC(=O)OCOc1c2n(cc(C(=O)NCc3ccc(F)cc3F)c1=O)[C@@H]1CN(C2=O)[C@@H](C)CC[C@]12CC(C)=NO2 [Compound 76, (((3′S,5S,7′R)-10′-((2,4-difluorobenzyl)carbamoyl)-3,3′-dimethyl-1′,11′-dioxo-1′,4′,5′,11′-tetrahydro-3′H,4H,7′H-spiro[isoxazole-5,6′-[2,7]methanopyrido[1,2-a][1,4]diazonin]-12′-yl)oxy)methyl ((2R,3R)-3-(phosphonooxy)pentan-2-yl) carbonate] | 24.8 | –
12 | CC[C@H](OP(=O)(O)O)[C@@H](C)OC(=O)OCOc1c2n(cc(C(=O)NCc3ccc(F)cc3F)c1=O)[C@@H]1CN(C2=O)[C@@H](C)CC[C@]12CC(C)=NO2 [Compound 77, (((3′S,5S,7′R)-10′-((2,4-difluorobenzyl)carbamoyl)-3,3′-dimethyl-1′,11′-dioxo-1′,4′,5′,11′-tetrahydro-3′H,4H,7′H-spiro[isoxazole-5,6′-[2,7]methanopyrido[1,2-a][1,4]diazonin]-12′-yl)oxy)methyl ((2R,3S)-3-(phosphonooxy)pentan-2-yl) carbonate] | 37 | –
13 | CC[C@@H](OP(=O)(O)O)[C@@H](C)OC(=O)OCOc1c2n(cc(C(=O)NCc3ccc(F)cc3F)c1=O)[C@@H]1CN(C2=O)[C@@H](C)CC[C@]12CC(OC)=NO2 [Compound 78, (((3′S,5S,7′R)-10′-((2,4-difluorobenzyl)carbamoyl)-3-methoxy-3′-methyl-1′,11′-dioxo-1′,4′,5′,11′-tetrahydro-3′H,4H,7′H-spiro[isoxazole-5,6′-[2,7]methanopyrido[1,2-a][1,4]diazonin]-12′-yl)oxy)methyl ((2R,3R)-3-(phosphonooxy)pentan-2-yl) carbonate] | 28.6 | –
14 | CC[C@H](OP(=O)(O)O)[C@@H](C)OC(=O)OCOc1c2n(cc(C(=O)NCc3ccc(F)cc3F)c1=O)[C@@H]1CN(C2=O)[C@@H](C)CC[C@]12CC(OC)=NO2 [Compound 79, (((3′S,5S,7′R)-10′-((2,4-difluorobenzyl)carbamoyl)-3-methoxy-3′-methyl-1′,11′-dioxo-1′,4′,5′,11′-tetrahydro-3′H,4H,7′H-spiro[isoxazole-5,6′-[2,7]methanopyrido[1,2-a][1,4]diazonin]-12′-yl)oxy)methyl ((2R,3S)-3-(phosphonooxy)pentan-2-yl) carbonate] | 45.7 | –
15 | CC1=NO[C@@]2(CC[C@H](C)N3C[C@H]2n2cc(C(=O)NCc4ccc(F)cc4F)c(=O)c(OCOC(=O)OC[C@H](OP(=O)(O)O)C(C)C)c2C3=O)C1 [Compound 80, (((3′S,5S,7′R)-10′-((2,4-difluorobenzyl)carbamoyl)-3,3′-dimethyl-1′,11′-dioxo-1′,4′,5′,11′-tetrahydro-3′H,4H,7′H-spiro[isoxazole-5,6′-[2,7]methanopyrido[1,2-a][1,4]diazonin]-12′-yl)oxy)methyl ((R)-3-methyl-2-(phosphonooxy)butyl) carbonate] | 27.2 | –
16 | COC1=NO[C@@]2(CC[C@H](C)N3C[C@H]2n2cc(C(=O)NCc4ccc(F)cc4F)c(=O)c(OCOC(=O)OC[C@H](OP(=O)(O)O)C(C)C)c2C3=O)C1 [Compound 81, (((3′S,5S,7′R)-10′-((2,4-difluorobenzyl)carbamoyl)-3-methoxy-3′-methyl-1′,11′-dioxo-1′,4′,5′,11′-tetrahydro-3′H,4H,7′H-spiro[isoxazole-5,6′-[2,7]methanopyrido[1,2-a][1,4]diazonin]-12′-yl)oxy)methyl ((R)-3-methyl-2-(phosphonooxy)butyl) carbonate] | 36.9 | –
17 | COC1=NO[C@@]2(CC[C@H](C)N3C[C@H]2n2cc(C(=O)NCc4ccc(F)cc4F)c(=O)c(OCOC(=O)OC[C@@H](OP(=O)(O)O)C(C)C)c2C3=O)C1 [Compound 82, (((3′S,5S,7′R)-10′-((2,4-difluorobenzyl)carbamoyl)-3-methoxy-3′-methyl-1′,11′-dioxo-1′,4′,5′,11′-tetrahydro-3′H,4H,7′H-spiro[isoxazole-5,6′-[2,7]methanopyrido[1,2-a][1,4]diazonin]-12′-yl)oxy)methyl ((S)-3-methyl-2-(phosphonooxy)butyl) carbonate] | 39.7 | –
